# Results: ChEMBL document CHEMBL2311338, “On the preparation of indoxyl red from indican and some new characteristics” (Bioorg Med Chem Lett, 2013)
# Active and inactive are the calls of the source. The calls are words filed in the database; no cut-off is given here.
# Experiments:
# [1] = Anticancer activity against 1 x 10^5 cells mouse NSF202 cells assessed as decrease in viable cells at 1 ug/ml measured after 2 days by trypan blue exclusion method; format: functional
# Mus musculus [2] = species: Mus musculus; assay: Anticancer activity against 2 x 10^5 cells mouse NSF202 cells assessed as cell growth inhibition at 1.02 uM measured after 2 days by trypan blue exclusion method; format: functional, cell-based
# Mus musculus [3] = species: Mus musculus; assay: Anticancer activity against 1 x 10^5 cells mouse NSF202 cells assessed as cell growth inhibition at 1.02 uM measured after 2 days by trypan blue exclusion method; format: functional, cell-based
# [4] = Antiproliferative activity against human leukemia cells; format: functional, cell-based; conditions: Leukemia cell
# MCF7 = assay: Antiproliferative activity against human MCF7 cells; format: functional, cell-based
# [5] = Antiproliferative activity against human lung cancer cells; format: functional, cell-based; conditions: Cancer cell lines
# SNU-638 = assay: Antiproliferative activity against human SNU638 cells; format: functional, cell-based
IC50 (MCF7) [µM],IC50 (SNU-638) [µM],Structure (SMILES),Activity [1] [%],inhibition (Mus musculus [2]),inhibition (Mus musculus [3]),IC50 [4] [µM],IC50 [5] [µM]
–,–,O=C1C(c2c[nH]c3ccccc23)=Nc2ccccc21 [INDOXYL RED],40,Active,Active,–,–
1.4,1.2,O=Nc1c(-c2c(O)[nH]c3ccc([N+](=O)[O-])cc23)[nH]c2ccccc12,–,–,–,9.2,5.4
